Data reported in paper PMC11478334, “Quaternized Curcumin Derivative—Synthesis, Physicochemical Characteristics, and Photocytotoxicity, Including Antibacterial Activity after Irradiation with Blue Light” (Molecules, 2024).
Like-named read-outs stand apart in the source and are kept apart here.

What was measured:
MRC-5—lung fibroblasts = experiment: MTT cell viability assay; assay type: cell-based, human
Method: (§1) To determine the toxicity of the tested compounds against normal and tumor cells, a cell viability assay was performed using MTT dye. The following cell lines were used: PHDF—primary human dermal fibroblasts, MRC-5—lung fibroblasts, WM266-4—melanoma, and WM115—melanoma. Whenever possible, the IC50 value was calculated for each cell line. The IC50 results are reported in Table 9, while Figure 14 presents graphs illustrating the dependence of cell viability on the concentration of the tested compounds.
(§2) In order to analyze the cytotoxic effect of curcumin and compounds 2 and 3, different cell lines were used: PHDF—primary human dermal fibroblasts, MRC-5—lung fibroblasts, WM266-4—melanoma (low-melanotic), and WM115—melanoma (high-melanotic). All cell lines were seeded onto 96-well flat-bottom plates at a concentration of 15,000 cells/well. Curcumin (1) and compounds 2 and 3 were dissolved in the completed culture medium at the final concentrations of 5 µM, 10 µM, 20 µM, 30 µM, 40 µM, and 50 µM. The final volume of medium in each well was 200 µL. Cells which were not exposed to the tested compounds constituted a control group. After 24 h, each of the reagents was added to the cells. Control cells were not treated with synthesized reagents; they were incubated with a completed cell culture medium. The incubation of cells with 1, 2, or 3 lasted 24 and 48 h. Then, the medium was discarded, and the new medium containing MTT (3-(4,5-dimethylthiazol-2-yl)-2,5-diphenyltetrazolium bromide) (Affymetrix, Cleveland, OH, USA) at a final concentration of 0.5 mg/mL was added to the cell culture. Cells were incubated for 2.5 h in cell culture conditions. Next, the medium was removed, and 100 µL of DMSO (Thermo Scientific, Waltham, MA, USA) was added to dissolve the formed formazan crystals. The absorbance was read with a Multiskan plate reader at 570 nm and the background at 655 nm (Thermo Scientific, Waltham, MA, USA). The experiment was performed in triplicate.
(§3) PHDF cells were extracted from skin pieces collected following mastectomy procedures at the Greater Poland Cancer Centre in Poznań, Poland. Each time, informed patient agreement was acquired for the “The Cancer Genome Atlas (TCGA)” project to utilize biological material for scientific research purposes. […] The MRC-5, WM266-4, and WM115 cell lines were obtained from the American Type Culture Collection (ATCC). For culturing of the PHDF, WM266-4, and WM115 cell lines, the medium contained Dulbecco′s Modified Eagle′s Medium (DMEM) (Biowest, Nuaillé, France), 10% of fetal bovine serum (Biowest, Nuaillé, France), and 1% of penicillin/streptomycin agents (Merck Millipore, Darmstadt, Germany). Cells were incubated in a humidified incubator containing 5% CO2. The MRC-5 cell line was cultured similarly to the method described in our previous article. Briefly, cells were incubated at 37 °C in an atmosphere enriched with 5% CO2. The basic culture medium was Dulbecco’s Modified Eagle’s Medium (DMEM) (Biowest, Nuaillé, France) supplemented with 10% fetal bovine serum (FBS) (Biowest, Nuaillé, France) with the addition of 2 mM L-glutamine and 5% non-essential amino acid solution.

[1] = system: PHDF—primary human dermal fibroblasts; experiment: MTT cell viability assay; assay type: cell-based
Method: as §1, §2, §3

[2] = system: WM266-4—melanoma (low-melanotic); experiment: MTT cell viability assay; assay type: cell-based
Method: as §1, §2, §3

[3] = system: WM115—melanoma (high-melanotic); experiment: MTT cell viability assay; assay type: cell-based
Method: as §1, §2, §3

[4] = Photodecomposition quantum yields (photostability under visible light); assay type: physicochemical; conditions: for 10^−5 Φp (photodecomposition quantum yield): visible light over 450 nm; for ΦP (photodecomposition quantum yield) / calculated photodecomposition quantum yields, level: visible light λ ≥ 450 nm; for calculated photodecomposition quantum yields, level: solvent not stated
Source text: The absorption spectra of the studied curcumin derivatives 2 and 3 were monitored during the irradiation and compared with curcumin and zinc(II) phthalocyanine (ZnPc) as references (Figure 8). Under visible light irradiation (λ ≥ 450 nm), curcumin derivatives 2 and 3 only slightly decomposed. The calculated quantum yields were at the level of […]. […] Considering the obtained results, the morpholinoethyl and BF2 moieties tend to stabilize the curcumin core and prevent its photodecomposition. Partial reduction in light absorption (expressed by ε values) has also been noted for other photosensitizers subjected to the quaternization when 2-(morpholin-4-yl)ethoxy substituents were transformed into 2-(N-methylmorpholinium)ethoxy ones.
The photostability measurements were conducted in DMSO and DMF at ambient temperature under aerobic conditions according to the previously described method. A 150 W xenon lamp (Optel, Opole, Poland) was utilized as a light source. In order to separate the visible light (>450 nm), the HCC-16 cutting filter was used. The spectral changes under the irradiation were recorded with an OceanOptics Flame spectrophotometer equipped with a DT-MINI-2-GS light source (OceanOptics, Dunedin, FL, USA). The photodegradation quantum yields were then calculated using the previously presented equation [39, 73, 74, 76].

[5] = Singlet oxygen generation quantum yields, indirect method with DPBF or TTF; assay type: physicochemical
Method: Singlet oxygen generation quantum yield assessment constitutes a crucial measurement for the prospective photosensitizers applied in photodynamic therapy. For the singlet oxygen generation study, the indirect method was chosen with two different singlet oxygen quenchers—1,3-diphenylisobenzofuran (DPBF) and tetrathiafulvalene (TTF). Due to the partial overlapping of the DPBF band with the studied compounds’ bands in absorption spectra, a singlet oxygen formation assessment was also performed with TTF as a chemical singlet oxygen scavenger. The values obtained for new curcuminoids 2 and 3 were referenced to curcumin and ZnPc.
Singlet oxygen quantum yield measurements for 2, 3, and curcumin were assessed in dimethyl sulfoxide (DMSO; Fisher, Longborough, UK) and N,N-dimethylformamide (DMF; Fisher) at ambient temperature according to the comparative method protocols described previously. The method involves using chemical quenchers of singlet oxygen, 1,3-diphenylisobenzofuran (DPBF; Merck, Steinheim, Germany), tetrathiafulvalene (TTF; Aldrich, Steinheim, Germany), and an unsubstituted zinc(II) phthalocyanine (ZnPc; Aldrich) as a reference compound. The mixtures of curcumins and DPBF or TTF were irradiated with light adjusted to the maximum absorbance wavelength through the M250 monochromator (Optel, Opole, Poland). The changes in spectra under the irradiation were recorded with an OceanOptics Flame spectrophotometer equipped with a DT-MINI-2-GS light source. The singlet oxygen quantum yields were calculated using the previously presented equation [39, 73, 74, 75].

[6] = Homo sapiens, Fibroblast, 24 h incubation, read-out: IC50 24 h
[7] = Homo sapiens, Fibroblast, 48 h incubation, read-out: IC50 48 h (converted)
[8] = Homo sapiens, Fibroblast, 48 h incubation, read-out: IC50 48 h
[9] = 24 h incubation, read-out: IC50 24 h
[10] = 48 h incubation, read-out: IC50 48 h (converted)

| Compound | IC50 (MRC-5—lung fibroblasts; [6]) [µM] | IC50 (MRC-5—lung fibroblasts; [7]) [µM] | IC50 [1, 6] [µM] | IC50 [1, 8] [µM] | IC50 [2, 9] [µM] | IC50 [2, 10] [µM] | IC50 [3, 9] [µM] | IC50 [3, 10] [µM] | 10^−5 Φp (photodecomposition quantum yield) ([4]; DMF) | 10^−5 Φp (photodecomposition quantum yield) ([4]; DMSO) | calculated photodecomposition quantum yields, level [4] | singlet oxygen quantum yield ([5]; DPBF quencher, DMF) | singlet oxygen quantum yield ([5]; DPBF quencher, DMSO) | singlet oxygen quantum yield ([5]; TTF quencher, DMF) | singlet oxygen quantum yield ([5]; TTF quencher, DMSO) | also measured |
| --- | --- | --- | --- | --- | --- | --- | --- | --- | --- | --- | --- | --- | --- | --- | --- | --- |
| F[B-]1(F)OC(/C=C/c2ccc(OCCN3CCOCC3)cc2)=CC(/C=C/c2ccc(OCCN3CCOCC3)cc2)=[O+]1 [Compound 2] | > 50 | 3.8 | > 50 | 28.4 | > 50 | > 50 | > 50 | > 50 | 2.90 10^−5 | 5.41 10^−5 | ~10^−4 | <0.01 | 0.024 | <0.01 | <0.01 | ΦP (photodecomposition quantum yield) ([4]; DMF): 2.90 × 10^−5; ΦP (photodecomposition quantum yield) ([4]; DMSO): 5.41 × 10^−5 |
| C[N+]1(CCOc2ccc(C=CC3=CC(C=Cc4ccc(OCC[N+]5(C)CCOCC5)cc4)=[O+][B-](F)(F)O3)cc2)CCOCC1 [Compound 3] | > 50 | > 50 | > 50 | > 50 | > 50 | > 50 | > 50 | > 50 | 20.10 10^−5 | 6.13 10^−5 | ~10^−4 | 0.026 | 0.046 | 0.084 | 0.057 | singlet oxygen generation ΦΔ, reaching up to ([5]; TTF used, solvent not stated): ≤ 0.1 |
| Curcumin [reference compound] |  |  |  |  | 44.9 ± 10.7 | 20.6 | 39.5 ± 9.4 | 18.1 | 9.99 10^−5 | 8.31 10^−5 |  |  |  | 0.098 | 0.116 | IC50 (MRC-5—lung fibroblasts; [9]): 39.5 ± 8.8 µM; IC50 (MRC-5—lung fibroblasts; [10]): 18.1 µM; IC50 [1, 9]: > 50 µM; IC50 ([1]; 48 h incubation, read-out: IC50 48 h): 24.6 µM; IC50 ([2]; 24 h incubation, listed as curcumin, read-out: IC50 24 h): 45 µM; IC50 ([2]; 48 h incubation, listed as curcumin, read-out: IC50 48 h (converted)): 21 µM; singlet oxygen generation ΦΔ, estimated ([5]; natural curcumin, solvent not stated): 0.04–0.1 |
